Source: ChEMBL document CHEMBL1156364, “Chondropsin D, a new 37-membered-ring macrolide lactam from the marine sponge Chondropsis species” (J Nat Prod, 2001)
≈ marks a conversion by molar mass, not a printed value.

Tests used:
[1] = Cytotoxicity against human LOX cells after 2 days by XTT assay; format: functional, cell-based; conditions: 48 h
[2] = system: MOLT-4; test: Cytotoxicity against human MOLT4 cells after 2 days by XTT assay; format: functional, cell-based; conditions: MOLT-4, 48 h

COC(=O)C(C)(C)C(O)C(C)C(=O)C(C)(C)/C=C/C(=O)NC(C(O)C(C)C)C(O)C(C)/C=C(\C)C(O)C(C)CCC(O)C(C)C(=O)NC1C(C)OC(=O)C(C(O)C(=O)O)NC(=O)/C=C/C=C/CC/C=C/C=C/C[C@@H]2C[C@@H](C)C[C@@H](CC(O)C(C)C(O)/C(C)=C/C(C)C(O)/C(C)=C/CC(OC(=O)CC(O)C(=O)O)C(C)C1O)O2 (some centres not stated) [CHONDROPSIN D]
IC50 [1]: 0.01 µg/mL (≈ 0.00629 µM)
IC50 [2]: 0.25 µg/mL (≈ 0.157 µM)
